From ChEMBL document CHEMBL5674860, “Optimized Dual-Glo Assay to identify co-culture-induced drug vulnerabilities in 3D CRC models” (2024)

Legend:
Format in all cases: functional, Homo sapiens
Design in all cases: dose or concentration left out as unconfirmed
[1] = tested on: Colon cancer organoid; assay: Optimized Dual-Glo assay to identify co-culture induced drug vulnerabilities using donated chemical probes and chemogenomics kinase set in O14 CRC organoid and F14 CAF mono and co-culture. […] Cell viability is reported both mono and co-culture models.
[2] = tested on: Colon cancer organoid; assay: Optimized Dual-Glo assay to identify co-culture induced drug vulnerabilities using donated chemical probes and chemogenomics kinase set in O06 CRC organoid and F06 CAF mono and co-culture. […] Cell viability is reported both mono and co-culture models.
[3] = tested on: Colon cancer organoid; assay: Optimized Dual-Glo assay to identify co-culture induced drug vulnerabilities using donated chemical probes and chemogenomics kinase set in O20 CRC organoid and F20 CAF mono and co-culture. […] Cell viability is reported both mono and co-culture models.
[4] = Culture type Co-Culture, Transduced with Lucferase2-P2A-EGFP lentivirus
[5] = Culture type Co-Culture, Transduced with Renilla-dsRed lentivirus
[6] = Culture type Mono-Culture, Transduced with Lucferase2-P2A-EGFP lentivirus
[7] = Culture type Mono-Culture, Transduced with Renilla-dsRed lentivirus

SMILES | Cell Viability [1, 4] [%] | Cell Viability [1, 5] [%] | Cell Viability [1, 6] [%] | Cell Viability [1, 7] [%] | Cell Viability [2, 4] [%] | Cell Viability [2, 5] [%] | Cell Viability [2, 6] [%] | Cell Viability [2, 7] [%] | Cell Viability [3, 4] [%] | Cell Viability [3, 5] [%] | Cell Viability [3, 6] [%] | Cell Viability [3, 7] [%]
COc1ccccc1S(=O)(=O)Nc1ccc2c(c1)CN(C)C(=O)N2 | 98.1337 | 101.069 | 91.805 | 99.3977 | 75.1061 | 112.248 | 98.6756 | 116.533 | 111.384 | 99.8859 | 75.6376 | 98.229
CC1=CC(C)=[N+]2C1=C(CCCCc1cn(CC(=O)N3CCc4nc(NC(=O)[C@H]5CCN(C#N)C5)sc4C3)nn1)c1c(C)cc(C)n1[B-]2(F)F | 88.5952 | 139.238 | 60.7776 | 90.2828 | 125.029 | 111.523 | 94.7301 | 81.9832 | 77.2227 | 101.216 | 73.7517 | 82.644
O=C1c2ccc(Nc3ccc(F)cc3F)cc2CCc2ccc(OC[C@H](O)CO)cc21 [Skepinone-L] | 150.905 | 93.4936 | 165.429 | 90.897 | 115.343 | 88.0925 | 155.18 | 90.6486 | 88.3042 | 86.6611 | 113.922 | 95.9781
Cn1c(-c2csc(C3CCN(CC4=NC5N=CC=CC5N4)CC3)n2)nc2ccccc21 (stereo not drawn) [BAY-070] | 71.6704 | 82.4795 | 106.637 | 95.1305 | 29.934 | 49.5381 | 49.5158 | 105.274 | 41.8948 | 84.0468 | 78.1822 | 83.7423
Cc1cc(C)cc([C@@H]2c3cc(C)ccc3NC(=O)CN2C(=O)c2ccc(Br)s2)c1 | 88.8372 | 581.73 | 126.733 | 467.801 | 107.168 | 464.523 | 138.593 | 545.831 | 135.921 | 541.943 | 109.076 | 515.86
CN(C)C(=O)c1ccc(-c2cc(C(=O)N(C)C3CCCC3)no2)cc1O | 78.738 | 108.435 | 99.3256 | 115.997 | 126.057 | 129.278 | 114.98 | 129.58 | 121.535 | 110.433 | 107.717 | 123.756
CN(C)CC#Cc1ccc(OCCCc2sc(N3CCc4cccc(C(=O)Nc5nc6ccccc6s5)c4C3)nc2C(=O)O)c(F)c1 [A-1155463] | 48.5807 | 127.556 | 26.2999 | 75.159 | 0.3385 | 128.541 | 0.4136 | 37.2528 | 1.175 | 177.943 | 3.867 | 58.9374
CO[C@@H](C)c1c(Nc2ccc([C@@H](N(C)C(=O)C3CCS(=O)(=O)CC3)C(F)(F)F)cc2)cnc2cc(Cl)nn12 [NVS-MALT1-C] | 62.8563 | 80.6398 | 85.3196 | 104.147 | 50.6957 | 73.6522 | 67.3669 | 85.1011 | 83.6241 | 108.215 | 61.6775 | 90.6676
CC(=O)C1=C(C)N(c2cccc(C(F)(F)F)c2)C(=O)N[C@@H]1c1ccc(C#N)nc1 [BAY-678] | 126.5 | 123.101 | 84.3173 | 104.156 | 128.432 | 162.784 | 110.704 | 89.9312 | 140.099 | 133.591 | 110.356 | 85.3396
CSc1cccnc1N1CCN(Cc2nc3ccccc3[nH]2)CC1 [A-769] | 93.5096 | 109.84 | 108.274 | 96.7022 | 120.489 | 139.823 | 101.067 | 109.755 | 125.432 | 98.3481 | 117.315 | 102.928
COc1cc(OC)cc(-c2noc(N3CCN(C)C4(CCN(c5ccccc5)CC4)C3)n2)c1 | 94.7889 | 110.973 | 95.4006 | 91.5093 | 67.7845 | 115.277 | 89.2845 | 104.733 | 90.0996 | 110.491 | 105.262 | 93.4153
CC(=O)N1CCC(c2ccc(C(=O)NC(=N)N)cc2C(F)(F)F)CC1 [BI 9627] | 82.2007 | 132.273 | 72.3529 | 98.3882 | 150.087 | 189.046 | 112.79 | 98.1409 | 96.0735 | 101.417 | 111.956 | 89.7357
CN1CCN(Cc2ccc(Nc3ncc(Cl)c(Nc4ccccc4S(=O)(=O)N(C)C)n3)cc2)CC1 [DUBERMATINIB] | 0.6117 | 1.021 | 1.267 | 1.499 | 0.5937 | 0.7151 | 0.6913 | 2.891 | 1.045 | 16.1981 | 1.218 | 12.0094
CCOC(=O)CCNc1cc(N2CCc3ccccc3CC2)nc(-c2ccccn2)n1 | 81.7654 | 97.685 | 98.6348 | 109.679 | 103.039 | 116.98 | 128.06 | 112.043 | 100.893 | 127.032 | 66.9069 | 85.0003
